Results taken from patent publication US11649476B2, “Flow cytometry data processing for antimicrobial agent sensibility prediction” (priority 2016, dated 2023).

Assays:
[1] = tested on: Enterobacteriaceae strains; test: FCM analysis of Ceftazidime-treated strains (DiBAC4(3) marker), fluorescence distribution; type: cell-based; conditions: 128 strains, 1, 2, 4 and 8 mg/L Ceftazidime; inferred from low performance of quantile models
Method: In a next step 22, liquid samples with different concentrations {C1, . . . , Cm} of the antibiotic are prepared for each of the selected strains Si, where C1=0 (no antibiotic) and m>2 is the number of non-null concentrations of antibiotic. Said concentrations are stored in the computer unit 14. […] After 2 h growth at 35° C. with shaking at 180 rpm, the resulting exponential phase bacterial culture is normalized at 0.5 McF and used to inoculate wells of a microtiterplate supplemented with antibiotics at the different concentrations {C1, . . . , Cm}. After 1 h of incubation at 35° C., a membrane depolarization fluorescent marker, for example (Bis-(1,3-Dibutylbarbituric Acid)Trimethine Oxonol), also known as “DiBAC4(3)”, is added to the wells at a final concentration of 0.5 μg/ml. An additional 15 min incubation with the marker is at 35° C. is then carried out. […]
In the step 24, a FCM acquisition is performed for each sample by means of the flow-cytometer 12 and the corresponding FSC, SSC and fluorescence distributions stored in the computer unit 14. For each strain Si, and for each concentration C1, a FSC distribution “FSCi,j”, a SSC distribution “SSCi,j” and a fluorescence distribution “FIi,j” are thus stored in the computer unit 14, e.g. in the form of digital vectors. […]

[2] = tested on: Enterobacteriaceae strains; test: FCM fluorescence distribution profiles of Gentamicin-treated strains (DiBAC4(3) membrane depolarization marker); type: cell-based
Method: In a next step 22, liquid samples with different concentrations {C1, . . . , Cm} of the antibiotic are prepared for each of the selected strains Si, where C1=0 (no antibiotic) and m>2 is the number of non-null concentrations of antibiotic. Said concentrations are stored in the computer unit 14. […] After 2 h growth at 35° C. with shaking at 180 rpm, the resulting exponential phase bacterial culture is normalized at 0.5 McF and used to inoculate wells of a microtiterplate supplemented with antibiotics at the different concentrations {C1, . . . , Cm}. After 1 h of incubation at 35° C., a membrane depolarization fluorescent marker, for example (Bis-(1,3-Dibutylbarbituric Acid)Trimethine Oxonol), also known as “DiBAC4(3)”, is added to the wells at a final concentration of 0.5 μg/ml. An additional 15 min incubation with the marker is at 35° C. is then carried out. The concentrations {C1, . . . , Cm} are chosen such that the range [BPS, BPR] is included or equal to the range [C2, Cm] of non-null concentrations.
In the step 24, a FCM acquisition is performed for each sample by means of the flow-cytometer 12 and the corresponding FSC, SSC and fluorescence distributions stored in the computer unit 14. For each strain Si, and for each concentration C1, a FSC distribution “FSCi,j”, a SSC distribution “SSCi,j” and a fluorescence distribution “FIi,j” are thus stored in the computer unit 14, e.g. in the form of digital vectors.
The experiment was performed as described in the following lines: • A panel of 107 Enterobacteriaceae strains (FIG. 6: Distribution of the panel of strains according to their MICs for Gentamicin) were treated with 0, 2, 4 and 8 mg/L of Gentamicin following the protocol described in FIG. 3 and analyzed by FCM.

CC(C)(O/N=C(\C(=O)N[C@@H]1C(=O)N2C(C(=O)[O-])=C(C[n+]3ccccc3)CS[C@H]12)c1csc(N)n1)C(=O)O [Ceftazidime]
fluorescence distribution of treated strains [1]: the majority of strains treated with Ceftazidime exhibit homogeneous distributions of fluorescence

Gentamicin
fluorescence distribution profile vs untreated samples ([2]; intermediate phenotype strains, 2 mg/L Gentamicin): more strains showed no shift of fluorescence (profile A)
fluorescence distribution profile vs untreated samples ([2]; intermediate phenotype strains, 4 and 8 mg/L Gentamicin): equal number of strains exhibited either no shift (profile A) or heterogeneous fluorescence distribution (profile B)
resistant strains that did not show any shift in fluorescence (profile A) ([2]; resistant phenotype strains, all concentrations tested (2, 4, 8 mg/L)): 36 out of 37
fluorescence distribution profile vs untreated samples ([2]; susceptible phenotype strains, 2 mg/L Gentamicin, panel of 107 strains, approximately evaluated): equal number of strains exhibited either no shift (profile A) or heterogeneous fluorescence distributions (profile B)
fluorescence distribution profile vs untreated samples ([2]; susceptible phenotype strains, 4 and 8 mg/L Gentamicin, panel of 107 strains, approximately evaluated): the majority of strains exhibited an heterogeneous fluorescence distribution (profile B)
